Experiment [1] has as its target Tubulin alpha chain (Sus scrofa) (UniProt P02550). Nature of the experiment: Percentage inhibition of [3H]colchicine binding to tubulin was evaluated at 50 uM concentration.
Experiment [2] shares this target. Nature of the experiment: Percentage control on Tubulin-Dependent GTP hydrolysis was evaluated at 50 uM concentration. Also on record: scale not given: the % may be the effect or the level left. Type of experiment: functional.
The target is the same in experiment [3]. Nature of the experiment: Percentage control on Tubulin-Dependent GTP hydrolysis was evaluated at 10 uM concentration. It is filed as functional. More on the design: scale not given: the % may be the effect or the level left.
The subject of the next experiment is P388. Nature of the experiment: Inhibition of murine P388 lymphocytic leukemia cell proliferation. It is filed as functional. To be noted: Mus musculus, read-out: ED50 (the source's name).
The target in experiment [4] is Tubulin alpha chain (Sus scrofa) (UniProt P02550). Nature of the experiment: Percentage control on Tubulin- Dependent GTP hydrolysis was evaluated at 10 micro M concentration. It is filed as functional. Also on record: scale not given: the % may be the effect or the level left.
Tubulin alpha chain (Sus scrofa), sequence (P02550 whole entry, looked up): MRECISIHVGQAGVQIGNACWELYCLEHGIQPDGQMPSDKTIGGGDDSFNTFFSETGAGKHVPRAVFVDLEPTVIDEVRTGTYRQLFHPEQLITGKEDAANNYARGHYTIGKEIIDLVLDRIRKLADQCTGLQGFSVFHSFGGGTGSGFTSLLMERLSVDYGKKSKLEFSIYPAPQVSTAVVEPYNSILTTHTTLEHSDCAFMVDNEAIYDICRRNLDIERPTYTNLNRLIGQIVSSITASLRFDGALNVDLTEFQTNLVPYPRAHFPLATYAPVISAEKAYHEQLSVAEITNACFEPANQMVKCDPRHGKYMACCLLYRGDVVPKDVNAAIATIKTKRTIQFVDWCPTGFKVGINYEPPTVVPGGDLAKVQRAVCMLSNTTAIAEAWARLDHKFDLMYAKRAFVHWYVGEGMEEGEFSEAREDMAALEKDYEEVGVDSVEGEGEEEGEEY
The target is the same in experiment [5]. Nature of the experiment: Percentage control on Tubulin- Dependent GTP hydrolysis was evaluated at 50 micro M concentration. More on the design: scale not given: the % may be the effect or the level left. Type of experiment: functional.

One may read the inhibition as the change of the read-out against control, counted positive when it falls. In the case of `COc1ccc(-c2sc3cc(OC)ccc3c2C(=O)c2cc(OC)c(OC)c(OC)c2)cc1`, the inhibition in experiment [1] was 28%. Also, the Control in experiment [2] turned out to be 135%; in experiment [3], 122%.
On to `COc1ccc(-c2sc3cc(OC)ccc3c2C(=O)c2cc(OC)c(O)c(OC)c2)cc1`, for which the EC50 in the experiment on P388 was above 100 µg/mL.
`COc1ccc(-c2sc3cc(OC)ccc3c2C(=O)c2cc(OC)cc(OC)c2)cc1`: the EC50 with P388 is above 100 µg/mL.
`COc1ccc(/C=C\c2cc(OC)c(OC)c(OC)c2)cc1O`: the Control turned out to be 161% in experiment [4] and 160% in experiment [5].
`COc1ccc(-c2sc3cc(OC)ccc3c2C(=O)c2c(OC)cccc2OC)cc1`: in the experiment with P388, the EC50 is above 100 µg/mL.
For the molecule `COc1cc([C@@H]2c3cc4c(cc3[C@H](O)[C@H]3COC(=O)[C@H]23)OCO4)cc(OC)c1OC`, the Control in experiment [4] worked out at 43%; in experiment [5] it was 31%.

The values are drawn from ChEMBL document CHEMBL1131675, “A new anti-tubulin agent containing the benzo[b]thiophene ring system” (1999).
